According to article PMC12186253, “Grafted Coiled-Coil Peptides as Multivalent Scaffolds for Protein Recognition” (ACS Chemical Biology, 2025):

Columns and labels:
[1] = target: T1, FAM-Ahx-BID/MCL-1 complex (Homo sapiens, UniProt Q07820); experiment: Fluorescence anisotropy competition assay, FAM-Ahx-BID/MCL-1; assay type: binding
T1 construct: residues 172 – 327; His6-SUMO (N, cleaved yes); made in house; host or cells: E. coli BL21-Gold (pET28a)
Source text: (1 picture or pasted object on this page, not shown here) […]

[2] = CD thermal unfolding of individual components (peptide or protein alone); assay type: physicochemical; details: CD at 222 nm, 5-85 °C, 20 °C/h; 25 μM in 20 mM phosphate, 100 mM NaCl, pH 7.4
Procedure: CD spectroscopy was used to investigate the secondary structures and thermal stabilities of the designed peptides alone and in the presence of MCL-1.
prepared at 200 – 500 µM in deionized water from solid peptides) were diluted into phosphate
buffer (20 mM phosphate, 100 mM NaCl, pH 7.4) to a final concentration of 25 µM for individual
components, and at a 1:1 ratio (final concentration of all components set as 50 µM for
homomeric species and 75 µM for heterodimeric complex with MCL-1, or 1:1:1 ratio) of the
number of binding sites on the coiled-coil peptides to BH3 binding domain on the protein.
Wavelength spectra were collected (average of 5 scans, from 190 – 300 nm) to evaluate
secondary structure of the individual components and the peptide:protein complexes at 20 °C.
Thermal unfolding experiments monitored the α helical minima at 222 nm from 5 – 85 °C with
a heating ramp of 20 °C/h , and Tm was calculated from the mid -point of unfolding transitions.
A background spectrum of the buffer alone was also collected and subtracted from raw sample
ellipticity values during data conversion.
Data were collected on an APP Chirascan CD spectropolarimeter using 1 mm pathlength
quartz cuvettes. Raw ellipticity data w ere converted to mean residue ellipticity (MRE) using
MRE = (([θ]λ – [θ]0) x Mw) / (n x l x c) […]
curves, the fraction folded was calculated with the following equation […]

T1 sequence (Q07820 172-327, one chain of several): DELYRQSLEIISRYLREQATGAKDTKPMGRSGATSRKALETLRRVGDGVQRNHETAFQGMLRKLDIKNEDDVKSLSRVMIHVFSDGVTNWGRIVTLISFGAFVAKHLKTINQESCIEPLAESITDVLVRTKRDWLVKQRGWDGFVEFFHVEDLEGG

Ac-GEILAIKQEILRIIGDNVAIKQEILNIKQGYG-NH2 [CC-Tri_E1]
IC50 [1]: 68 ± 16 µM

Ac-GEILALKQEILRLIGDNVALKQEILNLKQGYG-NH2 [CC-Di_E1]
IC50 [1]: 0.8 ± 0.1 µM

Ac-GELLAIKQELLRIIGDLVAIKQELLNIKQGYG-NH2 [CC-Tet_E1]
IC50 [1]: 7.4 ± 0.8 µM

MCL-1: α-helix-binding antiapoptotic target protein, residues 172 – 327, expressed in E. coli
Tm (thermal unfolding midpoint), component alone [2]: 62 °C
